Reference: PubChem BioAssay AID1259407 (Chemical Carcinogenesis Research Information System (CCRIS), 2018)
Activity calls are given as the source filed them. No rule for the calls is given here.

Tested on: CCRIS mutagenicity, Ames/micronucleus/aberration tests
Test: CCRIS mutagenicity studies
[1] = Test System: AMES SALMONELLA TYPHIMURIUM, Strain/Indicator: TA98, Metabolic Activation: HAMSTER, LIVER, S-9, AROCLOR 1254, Method: STANDARD PLATE
[2] = Test System: AMES SALMONELLA TYPHIMURIUM, Strain/Indicator: TA98, Metabolic Activation: NONE, Method: STANDARD PLATE
[3] = Test System: AMES SALMONELLA TYPHIMURIUM, Strain/Indicator: TA98, Metabolic Activation: RAT, LIVER, S-9, AROCLOR 1254, Method: STANDARD PLATE
[4] = Test System: AMES SALMONELLA TYPHIMURIUM, Strain/Indicator: TA100, Metabolic Activation: HAMSTER, LIVER, S-9, AROCLOR 1254, Method: STANDARD PLATE
[5] = Test System: AMES SALMONELLA TYPHIMURIUM, Strain/Indicator: TA100, Metabolic Activation: NONE, Method: STANDARD PLATE
[6] = Test System: AMES SALMONELLA TYPHIMURIUM, Strain/Indicator: TA100, Metabolic Activation: RAT, LIVER, S-9, AROCLOR 1254, Method: STANDARD PLATE
[7] = Test System: AMES SALMONELLA TYPHIMURIUM, Strain/Indicator: TA1535, Metabolic Activation: HAMSTER, LIVER, S-9, AROCLOR 1254, Method: STANDARD PLATE
[8] = Test System: AMES SALMONELLA TYPHIMURIUM, Strain/Indicator: TA1535, Metabolic Activation: NONE, Method: STANDARD PLATE
[9] = Test System: AMES SALMONELLA TYPHIMURIUM, Strain/Indicator: TA1535, Metabolic Activation: RAT, LIVER, S-9, AROCLOR 1254, Method: STANDARD PLATE
[10] = Test System: AMES SALMONELLA TYPHIMURIUM, Strain/Indicator: TA1537, Metabolic Activation: HAMSTER, LIVER, S-9, AROCLOR 1254, Method: STANDARD PLATE
[11] = Test System: AMES SALMONELLA TYPHIMURIUM, Strain/Indicator: TA1537, Metabolic Activation: NONE, Method: STANDARD PLATE
[12] = Test System: AMES SALMONELLA TYPHIMURIUM, Strain/Indicator: TA1537, Metabolic Activation: RAT, LIVER, S-9, AROCLOR 1254, Method: STANDARD PLATE
[13] = Test System: MOUSE LYMPHOMA, Strain/Indicator: L5178Y (TK+/TK-), Metabolic Activation: NONE, Method: SUSPENSION/PLATE

`CCO[Si](OCC)(OCC)OCC` was tested, and the mutagenic call [1] was “inactive; negative”, the mutagenic call [2] was “inactive; negative” and the mutagenic call [3] was “inactive; negative”. For the same compound, the mutagenic call [4] was “inactive; negative”, the mutagenic call [5] was “inactive; negative” and the mutagenic call [6] was “inactive; negative”. The mutagenic call (Test System: AMES SALMONELLA TYPHIMURIUM, Strain/Indicator: TA102, Metabolic Activation: HAMSTER, LIVER, S-9, AROCLOR 1254, Method: STANDARD PLATE) was “inactive; negative”, the mutagenic call (Test System: AMES SALMONELLA TYPHIMURIUM, Strain/Indicator: TA102, Metabolic Activation: NONE, Method: STANDARD PLATE) was “inactive; negative” and the mutagenic call (Test System: AMES SALMONELLA TYPHIMURIUM, Strain/Indicator: TA102, Metabolic Activation: RAT, LIVER, S-9, AROCLOR 1254, Method: STANDARD PLATE) was “inactive; negative”. For the same compound, the mutagenic call [7] was “inactive; negative”, the mutagenic call [8] was “inactive; negative” and the mutagenic call [9] was “inactive; negative”. For the same compound, the mutagenic call [10] was “inactive; negative”, the mutagenic call [11] was “inactive; negative” and the mutagenic call [12] was “inactive; negative”. For the same compound, the mutagenic call [13] was “inactive; negative. reevaluation of results: negative” and the mutagenic call (Test System: Mouse lymphoma, Strain/Indicator: L5178 Y (tk+/tk-), Metabolic Activation: Rat, Liver, S-9, Aroclor 1254, Method: Suspension/plate) was “inactive; negative”.
`CCCCCn1cc2c3c(cccc31)[C@H]1C=C(C)CN(C)[C@@H]1C2` was tested, and the mutagenic call [6] was “active; positive”.
For `CC/C(C)=N\O`, the mutagenic call (Test System: AMES SALMONELLA TYPHIMURIUM, Strain/Indicator: TA97, Metabolic Activation: HAMSTER LIVER S-9, AROCLOR 1254, 30%, Method: PREINCUBATION) was “inactive; negative”, the mutagenic call (Test System: AMES SALMONELLA TYPHIMURIUM, Strain/Indicator: TA97, Metabolic Activation: NONE, Method: PREINCUBATION) was “inactive; negative” and the mutagenic call (Test System: AMES SALMONELLA TYPHIMURIUM, Strain/Indicator: TA97, Metabolic Activation: RAT LIVER S-9, AROCLOR 1254, 30%, Method: PREINCUBATION) was “inactive; negative”. For the same compound, the mutagenic call (Test System: AMES SALMONELLA TYPHIMURIUM, Strain/Indicator: TA98, Metabolic Activation: HAMSTER LIVER S-9, AROCLOR 1254, 30%, Method: DESICCATOR) was “inactive; negative”, the mutagenic call (Test System: AMES SALMONELLA TYPHIMURIUM, Strain/Indicator: TA98, Metabolic Activation: HAMSTER LIVER S-9, AROCLOR 1254, 30%, Method: PREINCUBATION) was “inactive; negative” and the mutagenic call [1] was “inactive; negative”. The mutagenic call (Test System: AMES SALMONELLA TYPHIMURIUM, Strain/Indicator: TA98, Metabolic Activation: NONE, Method: DESICCATOR) was “inactive; negative”, the mutagenic call (Test System: AMES SALMONELLA TYPHIMURIUM, Strain/Indicator: TA98, Metabolic Activation: NONE, Method: PREINCUBATION) was “inactive; negative” and the mutagenic call [2] was “inactive; negative”. For the same compound, the mutagenic call (Test System: AMES SALMONELLA TYPHIMURIUM, Strain/Indicator: TA98, Metabolic Activation: RAT LIVER S-9, AROCLOR 1254, 30%, Method: DESICCATOR) was “inactive; negative”, the mutagenic call (Test System: AMES SALMONELLA TYPHIMURIUM, Strain/Indicator: TA98, Metabolic Activation: RAT LIVER S-9, AROCLOR 1254, 30%, Method: PREINCUBATION) was “inactive; negative” and the mutagenic call [3] was “inactive; negative”. For the same compound, the mutagenic call (Test System: AMES SALMONELLA TYPHIMURIUM, Strain/Indicator: TA100, Metabolic Activation: HAMSTER LIVER S-9, AROCLOR 1254, 30%, Method: DESICCATOR) was “inactive; negative”, the mutagenic call (Test System: AMES SALMONELLA TYPHIMURIUM, Strain/Indicator: TA100, Metabolic Activation: HAMSTER LIVER S-9, AROCLOR 1254, 30%, Method: PREINCUBATION) was “inactive; negative” and the mutagenic call [4] was “inactive; negative”. For the same compound, the mutagenic call (Test System: AMES SALMONELLA TYPHIMURIUM, Strain/Indicator: TA100, Metabolic Activation: NONE, Method: DESICCATOR) was “inactive; negative”, the mutagenic call (Test System: AMES SALMONELLA TYPHIMURIUM, Strain/Indicator: TA100, Metabolic Activation: NONE, Method: PREINCUBATION) was “inactive; negative” and the mutagenic call [5] was “inactive; negative”. For the same compound, the mutagenic call (Test System: AMES SALMONELLA TYPHIMURIUM, Strain/Indicator: TA100, Metabolic Activation: RAT LIVER S-9, AROCLOR 1254, 30%, Method: DESICCATOR) was “inactive; negative”, the mutagenic call (Test System: AMES SALMONELLA TYPHIMURIUM, Strain/Indicator: TA100, Metabolic Activation: RAT LIVER S-9, AROCLOR 1254, 30%, Method: PREINCUBATION) was “inactive; negative” and the mutagenic call [6] was “inactive; negative”. The mutagenic call (Test System: AMES SALMONELLA TYPHIMURIUM, Strain/Indicator: TA1535, Metabolic Activation: HAMSTER LIVER S-9, AROCLOR 1254, 30%, Method: PREINCUBATION) was “active; positive”, the mutagenic call [7] was “inactive; negative” and the mutagenic call (Test System: AMES SALMONELLA TYPHIMURIUM, Strain/Indicator: TA1535, Metabolic Activation: NONE, Method: PREINCUBATION) was “inactive; negative”. The mutagenic call [8] was “inactive; negative”, the mutagenic call (Test System: AMES SALMONELLA TYPHIMURIUM, Strain/Indicator: TA1535, Metabolic Activation: RAT LIVER S-9, AROCLOR 1254, 30%, Method: PREINCUBATION) was “inactive; negative” and the mutagenic call [9] was “inactive; negative”. The mutagenic call [10] was “inactive; negative”, the mutagenic call [11] was “inactive; negative” and the mutagenic call [12] was “inactive; negative”. The mutagenic call (Test System: AMES SALMONELLA TYPHIMURIUM, Strain/Indicator: TA1538, Metabolic Activation: HAMSTER, LIVER, S-9, AROCLOR 1254, Method: STANDARD PLATE) was “inactive; negative”, the mutagenic call (Test System: AMES SALMONELLA TYPHIMURIUM, Strain/Indicator: TA1538, Metabolic Activation: NONE, Method: STANDARD PLATE) was “inactive; negative” and the mutagenic call (Test System: AMES SALMONELLA TYPHIMURIUM, Strain/Indicator: TA1538, Metabolic Activation: RAT, LIVER, S-9, AROCLOR 1254, Method: STANDARD PLATE) was “inactive; negative”. The mutagenic call [13] was “active; positive. reevaluation of results: positive” and the mutagenic call (Test System: MOUSE LYMPHOMA, Strain/Indicator: L5178Y (TK+/TK-), Metabolic Activation: RAT, LIVER, S-9, AROCLOR 1254, Method: SUSPENSION/PLATE) was “inactive; negative. reevaluation of results: negative”.
`CC(C)(c1ccc(O)cc1)c1ccc(O)cc1` (tested in a mixture with another compound) was tested, and the mutagenic call (End Point: IN VITRO CHROMOSOMAL ABERRATIONS, Test System: CHL CELLS, Metabolic Activation: NONE) was “active; positive (structural changes)” and the mutagenic call (End Point: IN VITRO CHROMOSOMAL ABERRATIONS, Test System: CHL CELLS, Metabolic Activation: RAT, LIVER, S-9, SODIUM PHENOBARBITAL AND 5,6-BENZOFLAVONE) was “inactive; negative; authors report equivocal results for structural changes at 0.63 and 1”.
